Assay results published in patent publication US12486269B2 (Aconcagua Bio, Inc., priority 2024, dated 2025).

Tests used:
[1] = target: T1, COS-7/AMY3 (human calcitonin receptor (CTR) and RAMP3) (Homo sapiens, UniProt O60896+P30988); experiment: Amylin Receptor cAMP Assay II; format: cell-based; details: values marked **: Amylin Receptor cAMP Assay II; COS-7/AMY3 cells, cAMP dynamic 2 kit, 30 min; read-out: Amylin Receptor cAMP Stimulation Activity: EC50
T1 construct: expressed in transfected cells; host or cells: COS-7
T1 sequence (O60896 24-148, one chain of several): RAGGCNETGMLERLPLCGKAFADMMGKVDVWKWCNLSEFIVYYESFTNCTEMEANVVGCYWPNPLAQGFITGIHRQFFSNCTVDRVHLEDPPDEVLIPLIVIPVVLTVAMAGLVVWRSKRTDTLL
In short: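 COS-7 cells stably co-expressing human CTR and RAMP3 (AMY3), 2000 cells/well in HBSS with 20 mM HEPES, 0.5 mM IBMX, 0.1% casein, stimulated with compound for 30 min at 37 °C. cAMP measured by HTRF (665/615 nm), activity normalized between vehicle and maximal control.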

[2] = target: T2, human calcitonin receptor (CTR) (Homo sapiens, UniProt P30988); experiment: Calcitonin Receptor (CTR) cAMP Assay; format: cell-based; details: COS7-human CTR Clone #2 stable cell line, cAMP dynamic 2 kit, 30 min; read-out: Calcitonin Receptor cAMP Stimulation Activity: EC50
T2 construct: expressed in transfected cells; host or cells: COS-7 (COS7-human CTR Clone #2)
T2 sequence (P30988 25-474): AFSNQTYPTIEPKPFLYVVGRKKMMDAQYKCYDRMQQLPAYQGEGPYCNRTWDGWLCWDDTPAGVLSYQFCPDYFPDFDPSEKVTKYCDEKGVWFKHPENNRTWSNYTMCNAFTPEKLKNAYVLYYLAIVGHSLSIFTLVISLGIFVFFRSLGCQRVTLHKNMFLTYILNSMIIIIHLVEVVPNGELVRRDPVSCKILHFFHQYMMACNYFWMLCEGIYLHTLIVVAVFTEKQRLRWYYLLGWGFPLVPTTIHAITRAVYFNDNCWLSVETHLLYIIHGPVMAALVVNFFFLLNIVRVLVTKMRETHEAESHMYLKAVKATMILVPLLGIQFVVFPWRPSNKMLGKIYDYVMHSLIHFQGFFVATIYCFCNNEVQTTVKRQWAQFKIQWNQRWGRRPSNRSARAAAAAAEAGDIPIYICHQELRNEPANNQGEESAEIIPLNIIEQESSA
In short: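 COS-7 cells stably expressing human CTR (2000 cells/well) were incubated 30 min at 37 °C with 4-fold serially diluted compound in HBSS/20 mM HEPES/0.5 mM IBMX/0.1% casein. cAMP was detected by HTRF (665/615 nm) after 1 h at RT. % activity was normalised to vehicle and positive controls.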

Compound | EC50 [1] | EC50 [2]
O=C1c2c(nc(CCc3ccc(F)cc3)c(-c3n[nH]c(=O)o3)c2-c2cc3ccnc(N[C@@H]4CCc5cc(Cl)ccc54)c3s2)C23CC(CN12)C3 [Compound 273, (R)-5-(4-(7-((5-chloro-2,3-dihydro-1H-inden-1-yl)amino)thieno[2,3-c]pyridin-2-yl)-2-(4-fluorophenethyl)-5-oxo-8,9-dihydro-5H,7H-8,9a-methanopyrido[2,3-a]pyrrolizin-3-yl)-1,3,4-oxadiazol-2(3H)-one] | 1.79 nM | 0.165 nM
O=C1c2c(nc(CCc3ccc(F)cc3)c(-c3n[nH]c(=O)o3)c2-c2cc3ccnc(N[C@@H]4CCc5ccc(Cl)cc54)c3s2)C23CC(CN12)C3 [Compound 274, (R)-5-(4-(7-((6-chloro-2,3-dihydro-1H-inden-1-yl)amino)thieno[2,3-c]pyridin-2-yl)-2-(4-fluorophenethyl)-5-oxo-8,9-dihydro-5H,7H-8,9a-methanopyrido[2,3-a]pyrrolizin-3-yl)-1,3,4-oxadiazol-2(3H)-one] | 4.54 nM | 0.255 nM
COc1c(F)ccc2c1CC[C@H]2Nc1nccc2cc(-c3c4c(nc(CCc5cccc(F)c5)c3-c3n[nH]c(=O)o3)C35CC(CN3C4=O)C5)sc12 [Compound 275, (R)-5-(4-(7-((5-fluoro-4-methoxy-2,3-dihydro-1H-inden-1-yl)amino)thieno[2,3-c]pyridin-2-yl)-2-(3-fluorophenethyl)-5-oxo-8,9-dihydro-5H,7H-8,9a-methanopyrido[2,3-a]pyrrolizin-3-yl)-1,3,4-oxadiazol-2(3H)-one] | 0.394 nM | 0.0262 nM
COc1c(F)ccc2c1CC[C@H]2Nc1nccc2cc(-c3c4c(nc(CCc5ccccc5F)c3-c3n[nH]c(=O)o3)C35CC(CN3C4=O)C5)sc12 [Compound 276, (R)-5-(4-(7-((5-fluoro-4-methoxy-2,3-dihydro-1H-inden-1-yl)amino)thieno[2,3-c]pyridin-2-yl)-2-(2-fluorophenethyl)-5-oxo-8,9-dihydro-5H,7H-8,9a-methanopyrido[2,3-a]pyrrolizin-3-yl)-1,3,4-oxadiazol-2(3H)-one] | 1.57 nM | 0.0602 nM
COc1c(F)ccc2c1CC[C@H]2Nc1nccc2cc(-c3c4c(nc(CCc5cccc(Cl)c5)c3-c3n[nH]c(=O)o3)C35CC(CN3C4=O)C5)sc12 [Compound 277, (R)-5-(2-(3-chlorophenethyl)-4-(7-((5-fluoro-4-methoxy-2,3-dihydro-1H-inden-1-yl)amino)thieno[2,3-c]pyridin-2-yl)-5-oxo-8,9-dihydro-5H,7H-8,9a-methanopyrido[2,3-a]pyrrolizin-3-yl)-1,3,4-oxadiazol-2(3H)-one] | 0.368 nM | 0.0207 nM
COc1c(F)ccc2c1CC[C@H]2Nc1nccc2cc(-c3c4c(nc(CCc5ccccc5Cl)c3-c3n[nH]c(=O)o3)C35CC(CN3C4=O)C5)sc12 [Compound 278, (R)-5-(2-(2-chlorophenethyl)-4-(7-((5-fluoro-4-methoxy-2,3-dihydro-1H-inden-1-yl)amino)thieno[2,3-c]pyridin-2-yl)-5-oxo-8,9-dihydro-5H,7H-8,9a-methanopyrido[2,3-a]pyrrolizin-3-yl)-1,3,4-oxadiazol-2(3H)-one] | 0.517 nM | 0.0636 nM
O=C1c2c(nc(CCc3ccc(F)cc3)c(-c3n[nH]c(=O)o3)c2-c2cc3ccnc(N[C@@H]4CCc5c(F)cc(F)cc54)c3s2)C23CC(CN12)C3 [Compound 279, (R)-5-(4-(7-((4,6-difluoro-2,3-dihydro-1H-inden-1-yl)amino)thieno[2,3-c]pyridin-2-yl)-2-(4-fluorophenethyl)-5-oxo-5,7,8,9-tetrahydro-8,9a-methanopyrido[2,3-a]pyrrolizin-3-yl)-1,3,4-oxadiazol-2(3H)-one] | 0.318 nM | 0.051 nM
